Experimental data as given in patent EP4577640B1, “COMPOSITION COMPRISING AVENANTHRAMIDE C FOR INDUCING DIFFERENTIATION OF MESENCHYMAL STEM CELLS INTO CHONDROCYTES AND METHOD OF USING THE SAME” (Medeze Treasury Ptd. Ltd, priority 2023, dated 2025).

How the values were obtained:
[1] = tested on: Adipose-derived Mesenchymal Stem Cells (MSCs); assay: Immunofluorescence analysis of chondrocyte marker proteins on day 21 of in vitro chondrogenic differentiation (monolayer culture); type: cell-based, human
Experimental: (§1) In Vitro Chondrogenic Differentiation: In Vitro, chondrogenic differentiation using monolayer culture was performed. P4 MSCs were seeded in Gelatin-coated 24 well plates at 6000 cells/cm2. MSCs were expanded for 3 days before switching to the following Chondrocyte differentiation media (CDM) for 21 days (FIG. 1A).
(§2) Standard chondrocyte differentiation medium (STD) consists of DMEM Low Glucose (DMEM LG; Gibco #31600083), supplemented with 0.5 µg/ml hydrocortisone (Sigma-Aldrich #H0888), 1% Fetal bovine serum (FBS; Biowest #S181B), 1 X Insulin-Transferrin-Selenium-X (ITS-X; Gibo #51500056) or ITS+1 Liquid Media Supplement (Sigma-Aldrich #I2521), 10ng/ml recombinant human TGF-beta 3 (R&D Systems #8420-B3-025), […] L-ascorbate-2-phosphate (Sigma-Aldrich #49752), 1% Penicillin-Streptomycin (pen-strep; Gibco #15140122) and 500ng/ml Amphotericin B (Amp B; Gibco #15290026). Standard CDM (STD) will be used as a control (FIG. 1A).
Standard chondrocyte differentiation medium (STD) or CDM1 is then supplemented with 3 different treatment groups: 100 nM Avenanthramide C (Avn C; Sigma-Aldrich #36465) in CDM2, 500 ug/mL Chondroitin Sulfate (5 x CS; Sigma-Aldrich #C4384) in CDM3, and combination of 100 nM Avenanthramide C and 500 ug/mL Chondroitin Sulfate in CDM4 (FIG. 1A). […]

[2] = tested on: Adipose-derived Mesenchymal Stem Cells (MSCs); assay: RT-PCR mRNA expression analysis of chondrocyte markers relative to GAPDH; type: cell-based, human; conditions: Avn C treatment alone
Experimental: as §1
as §2, with “1A). […]” for “1A).”
It is imperative to investigate the impact of Avn C on transcriptionally regulated chondrocyte properties, both when used individually and in conjunction with chondroitin sulfate at an optimal dosage of 500ug/mL (5X CS). To assess this, RT-PCR mRNA expression analysis is employed, which offers precise quantitative data on relative mRNA expressions. […]

[3] = tested on: mouse articular chondrocytes; conditions: cited from earlier work

O=C(/C=C/c1ccc(O)c(O)c1)Nc1ccc(O)cc1C(=O)O [Avn C, Avenanthramide C]
expression of the COL2A1 protein (immunofluorescence signals) ([1]; 21-day treatment, CDM2 (STD + 100 nM Avn C) compared to CDM1 (STD)): significantly increasing the expression of the COL2A1 protein
optimal concentration of Avn C for enhancing Collagen 2A1 protein signals ([1]; 21 days in STD with 0 nM, 10 nM, 100 nM, 1 uM, 10 uM, 50 uM Avn C, MSCs from a different individual): around 100 nM
COL2A1 expression, transcriptional versus protein level [2]: influences COL2A1 at protein levels (FIGS. 2 and 3) rather than at the transcriptional level
expression of catabolic factors MMP-3, -12, and -13 ([3]; induced by IL-1β in mouse articular chondrocytes): effectively suppressed the expression of catabolic factors
IL-1β-mediated reduction of mature factors Collagen 2 (COL2A1) and SOX9 ([3]; mouse articular chondrocytes): did not impact the IL-1β-mediated reduction of mature factors
